The values below come from patent US10717734B2, “Indole and azaindole haloallylamine derivative inhibitors of lysyl oxidases and uses thereof” (PHARMAXIS LTD., priority 2016, dated 2020).

Format in all cases: biochemical
In assay [1] the target is Bovine LOX (Bos taurus (Bovine), UniProt P33072). As to the kind of experiment: LOX inhibition, peroxidase-coupled Amplex Red amine oxidase assay. As to conditions: 30 min preincubation at 37° C., putrescine substrate. The source says: (§1) Method to Determine the Ability of Compounds of the Invention to Inhibit LOX and LOXL1-4 from Different Sources
Lysyl oxidase (LOX) is an extracellular copper dependent enzyme which oxidizes peptidyl lysine and hydroxylysine residues in collagen and lysine residues in elastin to produce peptidyl alpha-aminoadipic-delta-semialdehydes. […] There are five LOX family members; these are LOX, LOXL1, LOXL2, LOXL3 and LOXL4. LOX and LOXL family members can be acquired as recombinant active proteins from commercial sources, or extracted from animal tissues like bovine aorta, tendons, pig skin; or prepared from cell cultures. The inhibitory effects of the compounds of the present invention were tested against the given LOX-LOXL preparation using a high-throughput coupled colorimetric method (Holt A. and Palcic M., A peroxidase-coupled continuous absorbance plate-reader assay for flavin monoamine oxidases, copper-containing amine oxidases and related enzymes. Nat. Protoc. 2006; 1: 2498-2505). The assay was developed using either 384 or 96 well format. Briefly, in a standard 384 well plate assay 25 μL of a dilution of any of the isoenzymes and orthologues in 1.2 M urea, 50 mM sodium borate buffer (pH 8.2) were added into each well in the presence of 1 μM mofegiline and 0.5 mM pargyline (to inhibit SSAO and MAO-B and MAO-A, respectively). […] Twenty five μL of a reaction mixture containing twice the KM concentration of putrescine (Sigma Aldrich, e.g. 20 mM for LOX, or 10 mM for LOXL2 and LOXL3), 120 μM Amplex Red (Sigma Aldrich) and 1.5 U/mL horseradish peroxidase (Sigma Aldrich) prepared in 1.2 M urea, 50 mM sodium borate buffer (pH 8.2) were then added to the corresponding wells. The above volumes were doubled in the case of 96 wells plate. The fluorescence (RFU) was read every 2.5 min for 30 min at a range of temperatures from 37° to 45° C., excitation 565 nm and emission 590 (Optima; BMG labtech). The slope of the kinetics for each well was calculated using MARS data analysis software (BMG labtech) and this value was used to deduce the IC50 value (Dotmatics).

For assay [2], the target named is Human LOXL2 (Homo sapiens (Human), UniProt Q9Y4K0). In words: LOXL2 inhibition, peroxidase-coupled Amplex Red amine oxidase assay. Particulars: 30 min preincubation at 37° C., putrescine substrate.
Text: as §1
Lysyl oxidase (LOX) is an extracellular copper dependent enzyme which oxidizes peptidyl lysine and hydroxylysine residues in collagen and lysine residues in elastin to produce peptidyl alpha-aminoadipic-delta-semialdehydes. […] There are five LOX family members; these are LOX, LOXL1, LOXL2, LOXL3 and LOXL4. LOX and LOXL family members can be acquired as recombinant active proteins from commercial sources, or extracted from animal tissues like bovine aorta, tendons, pig skin; or prepared from cell cultures. The inhibitory effects of the compounds of the present invention were tested against the given LOX-LOXL preparation using a high-throughput coupled colorimetric method (Holt A. and Palcic M., A peroxidase-coupled continuous absorbance plate-reader assay for flavin monoamine oxidases, copper-containing amine oxidases and related enzymes. Nat. Protoc. 2006; 1: 2498-2505). The assay was developed using either 384 or 96 well format. Briefly, in a standard 384 well plate assay 25 μL of a dilution of any of the isoenzymes and orthologues in 1.2 M urea, 50 mM sodium borate buffer (pH 8.2) were added into each well in the presence of 1 μM mofegiline and 0.5 mM pargyline (to inhibit SSAO and MAO-B and MAO-A, respectively). Test compounds were dissolved in DMSO and tested in a Concentration Response Curve (CRC) with 11 data points, typically in the micromolar or nanomolar range after incubation with the enzyme for 30 min at 37° C. Twenty five μL of a reaction mixture containing twice the KM concentration of putrescine (Sigma Aldrich, e.g. 20 mM for LOX, or 10 mM for LOXL2 and LOXL3), 120 μM Amplex Red (Sigma Aldrich) and 1.5 U/mL horseradish peroxidase (Sigma Aldrich) prepared in 1.2 M urea, 50 mM sodium borate buffer (pH 8.2) were then added to the corresponding wells. The above volumes were doubled in the case of 96 wells plate. The fluorescence (RFU) was read every 2.5 min for 30 min at a range of temperatures from 37° to 45° C., excitation 565 nm and emission 590 (Optima; BMG labtech). The slope of the kinetics for each well was calculated using MARS data analysis software (BMG labtech) and this value was used to deduce the IC50 value (Dotmatics).

Assay [3] deals with Human recombinant SSAO/VAP-1 (Homo sapiens (Human), UniProt Q16853). In words: Human recombinant SSAO/VAP-1 amine oxidase inhibition. As to conditions: 30 min preincubation at 37° C., 600 μM benzylamine. On the procedure: Method to Determine the Ability of Compounds of Formula I to Inhibit Human Recombinant SSAO/VAP-1
Human recombinant SSAO/VAP-1 amine oxidase activity was determined using the coupled colorimetric method as described for monoamine oxidase, copper-containing amine oxidases and related enzymes (Holt A. and Palcic M., A peroxidase-coupled continuous absorbance plate-reader assay for flavin monoamine oxidases, copper-containing amine oxidases and related enzymes. Nat Protoc 2006; 1: 2498-2505). Briefly, a cloned cDNA template corresponding to residues 34-763 of human SSAO/VAP-1, and incorporating a mouse Ig kappa (κ) signal sequence, N-terminal flag epitope tag and tobacco etch virus (TEV) cleavage site, was assembled in a mammalian expression vector (pLO-CMV) by Geneart AG. This vector containing human SSAO/VAP-1 residues was transfected into CHO-K1 glycosylation mutant cell line, Lec 8. A clone stably expressing human SSAO/VAP-1 was isolated and cultured in large scale. Active human SSAO/VAP-1 was purified and recovered using immunoaffinity chromatography. This was used as the source for SSAO/VAP-1 activity. A high-throughput colorimetric assay was developed using either 96 or 384 well format. Briefly, in a standard 96 well plate assay 50 μL of purified human SSAO/VAP-1 (0.25 μg/mL) in 0.1 M sodium phosphate buffer (pH 7.4) was added into each well. Test compounds were dissolved in DMSO and tested in a Concentration Response Curve (CRC) with 4-11 data points, typically in the micromolar or nanomolar range after incubation with human SSAO/VAP-1 for 30 min at 37° C. After 30 min incubation, 50 μL of the reaction mixture containing 600 μM benzylamine (Sigma Aldrich), 120 μM Amplex Red (Sigma Aldrich) and 1.5 U/mL horseradish peroxidase (Sigma Aldrich) prepared in 0.1 M sodium phosphate buffer (pH 7.4) were added to the corresponding well. The fluorescence unit (RFU) was read every 2.5 min for 30 min at 37° C. excitation 565 nm and emission 590 (Optima; BMG labtech). The slope of the kinetics for each well was calculated using MARS data analysis software (BMG labtech) and this value was used to deduce the IC50 value (Dotmatics).

For assay [4], the target named is Recombinant human MAO-B (Homo sapiens (Human), UniProt P27338). In words: Human recombinant MAO-B inhibition. As to conditions: benzylamine 100 μM. On the procedure:
Method to Determine the Ability of Compounds of Formula I to Inhibit Human Recombinant MAO-B
The specificity of the compounds of this invention was tested by determining their ability to inhibit MAO-B activities in vitro. Recombinant human MAO-B (0.06 mg/mL; Sigma Aldrich) was used as source of MAO-B enzyme activities. The assay was performed in a similar way as for human SSAO/VAP-1 (Example 36) except, the substrate benzylamine was used at 100 μM.

pIC50: −log10 of the molar value. Where a name gives a salt, the structure may show the parent alone. Where only a bound is given, the exact number is not on record here.

Chain of Recombinant human MAO-B (P27338 whole entry): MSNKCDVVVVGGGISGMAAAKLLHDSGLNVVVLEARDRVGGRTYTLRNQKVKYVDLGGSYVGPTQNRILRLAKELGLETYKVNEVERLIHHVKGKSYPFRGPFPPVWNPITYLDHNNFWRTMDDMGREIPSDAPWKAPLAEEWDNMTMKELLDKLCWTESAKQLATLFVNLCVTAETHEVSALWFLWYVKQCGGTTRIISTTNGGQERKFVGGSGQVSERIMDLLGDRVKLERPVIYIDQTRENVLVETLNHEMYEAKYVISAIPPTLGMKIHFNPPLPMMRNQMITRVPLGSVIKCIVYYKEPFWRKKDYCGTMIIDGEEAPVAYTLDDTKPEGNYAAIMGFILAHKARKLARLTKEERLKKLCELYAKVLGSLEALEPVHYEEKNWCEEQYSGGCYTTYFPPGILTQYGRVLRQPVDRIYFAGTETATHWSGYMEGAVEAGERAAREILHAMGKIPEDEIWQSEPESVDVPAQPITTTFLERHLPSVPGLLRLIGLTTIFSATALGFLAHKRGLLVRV
Chain of Human LOXL2 (Q9Y4K0 26-774): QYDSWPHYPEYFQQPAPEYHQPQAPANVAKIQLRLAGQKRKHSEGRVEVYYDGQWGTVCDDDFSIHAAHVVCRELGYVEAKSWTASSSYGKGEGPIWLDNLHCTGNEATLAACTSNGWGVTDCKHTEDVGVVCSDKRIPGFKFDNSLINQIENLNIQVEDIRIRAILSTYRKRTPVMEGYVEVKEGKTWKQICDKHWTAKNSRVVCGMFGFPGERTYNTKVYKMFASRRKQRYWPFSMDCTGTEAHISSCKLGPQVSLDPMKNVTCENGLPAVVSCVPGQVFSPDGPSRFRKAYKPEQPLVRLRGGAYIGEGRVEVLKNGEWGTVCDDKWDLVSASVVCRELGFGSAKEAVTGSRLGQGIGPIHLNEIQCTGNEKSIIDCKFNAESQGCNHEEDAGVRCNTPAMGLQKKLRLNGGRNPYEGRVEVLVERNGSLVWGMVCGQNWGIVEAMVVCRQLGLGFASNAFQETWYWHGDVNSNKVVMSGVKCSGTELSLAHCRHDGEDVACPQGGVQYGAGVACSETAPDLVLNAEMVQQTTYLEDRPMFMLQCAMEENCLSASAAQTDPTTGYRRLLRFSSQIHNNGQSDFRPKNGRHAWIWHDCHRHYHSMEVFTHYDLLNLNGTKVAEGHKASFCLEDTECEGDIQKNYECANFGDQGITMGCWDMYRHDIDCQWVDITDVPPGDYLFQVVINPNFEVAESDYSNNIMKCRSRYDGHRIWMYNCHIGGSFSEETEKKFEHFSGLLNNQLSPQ
Chain of Bovine LOX (P33072 170-418): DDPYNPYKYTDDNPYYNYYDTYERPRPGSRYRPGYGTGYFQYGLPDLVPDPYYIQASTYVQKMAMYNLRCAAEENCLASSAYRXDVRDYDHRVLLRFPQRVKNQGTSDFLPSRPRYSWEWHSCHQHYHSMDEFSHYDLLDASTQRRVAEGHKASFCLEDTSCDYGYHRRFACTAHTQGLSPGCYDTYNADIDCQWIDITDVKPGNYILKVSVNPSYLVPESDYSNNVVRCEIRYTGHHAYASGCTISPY
Chain of Human recombinant SSAO/VAP-1 (Q16853 34-763): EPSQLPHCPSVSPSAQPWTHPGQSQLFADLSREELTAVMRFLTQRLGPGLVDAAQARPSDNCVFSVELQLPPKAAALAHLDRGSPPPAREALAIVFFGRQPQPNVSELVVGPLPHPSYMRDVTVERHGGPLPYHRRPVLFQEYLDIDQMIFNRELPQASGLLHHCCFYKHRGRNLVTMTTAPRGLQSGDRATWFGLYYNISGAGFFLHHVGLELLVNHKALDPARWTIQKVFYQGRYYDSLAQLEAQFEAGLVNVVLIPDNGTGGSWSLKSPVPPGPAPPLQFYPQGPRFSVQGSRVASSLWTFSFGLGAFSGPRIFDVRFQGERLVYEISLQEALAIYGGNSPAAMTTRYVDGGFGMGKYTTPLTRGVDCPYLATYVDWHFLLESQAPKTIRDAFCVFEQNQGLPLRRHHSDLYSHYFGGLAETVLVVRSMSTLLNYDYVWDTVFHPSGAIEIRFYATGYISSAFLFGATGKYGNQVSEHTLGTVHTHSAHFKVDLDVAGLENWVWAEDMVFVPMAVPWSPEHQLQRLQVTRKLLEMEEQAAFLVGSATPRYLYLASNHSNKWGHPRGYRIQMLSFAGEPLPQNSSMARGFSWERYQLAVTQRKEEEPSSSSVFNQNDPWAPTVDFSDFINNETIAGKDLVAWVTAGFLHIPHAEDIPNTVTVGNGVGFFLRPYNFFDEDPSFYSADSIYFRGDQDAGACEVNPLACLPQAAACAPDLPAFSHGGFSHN

For `Cc1cnc2c(Cc3ccc(S(=O)(=O)N(C)C)cc3)c(C)n(C/C(F)=C/CN)c2c1` [Compound 11, (Z)-4-((1-(4-amino-2-fluorobut-2-en-1-yl)-2,6-dimethyl-1H-pyrrolo[3,2-b]pyridin-3-yl)methyl)-N,N-dimethylbenzenesulfonamide dihydrochloride], the negative logarithm of the IC50 (pIC50) in assay [1] was below 6.52; in assay [2], above 6.52; in assay [3], below 5.52; in assay [4] it was below 5.52.

As to `Cc1ccc2c(n1)c(Cc1ccc(S(C)(=O)=O)cc1)c(C)n2C/C(F)=C/CN` [Compound 12, (Z)-4-(2,5-dimethyl-3-(4-(methylsulfonyl)benzyl)-1H-pyrrolo[3,2-b]pyridin-1-yl)-3-fluorobut-2-en-1-amine dihydrochloride], the pIC50 was below 6.52 in assay [1], above 6.52 in assay [2], below 5.52 in assay [3] and below 5.52 in assay [4].

As for `Cc1ccc2c(n1)c(Cc1ccc(S(C)(=O)=O)nc1)c(C)n2C/C(F)=C/CN` [Compound 13, (Z)-4-(2,5-dimethyl-3-((6-(methylsulfonyl)pyridin-3-yl)methyl)-1H-pyrrolo[3,2-b]pyridin-1-yl)-3-fluorobut-2-en-1-amine trihydrochloride], the negative-log IC50 (pIC50) in assay [1] was below 6.52; in assay [2], above 6.52; in assay [3] it was below 5.52; in assay [4], below 5.52.

Turning to `Cc1ccc2c(n1)c(Cc1ccc(S(C)(=O)=O)cn1)c(C)n2C/C(F)=C/CN` [Compound 14, (Z)-4-(2,5-dimethyl-3-((5-(methylsulfonyl)pyridin-2-yl)methyl)-1H-pyrrolo[3,2-b]pyridin-1-yl)-3-fluorobut-2-en-1-amine trihydrochloride], the negative logarithm of the IC50 (pIC50) in assay [1] is below 6.52; in assay [2] it was above 6.52; in assay [3], below 5.52; in assay [4] it was below 5.52.

As to `Cc1ccc2c(n1)c(Cc1ccc(S(=O)(=O)N(C)C)cn1)c(C)n2C/C(F)=C/CN` [Compound 15, (Z)-6-((1-(4-amino-2-fluorobut-2-en-1-yl)-2,5-dimethyl-1H-pyrrolo[3,2-b]pyridin-3-yl)methyl)-N,N-dimethylpyridine-3-sulfonamide trihydrochloride], the negative logarithm of the IC50 (pIC50) in assay [1] is below 6.52; in assay [2], above 6.52; in assay [3], below 5.52; in assay [4], below 5.52.

For the compound `Cc1ccc2c(n1)c(Cc1ccc(S(=O)(=O)N(C)C)nc1)c(C)n2C/C(F)=C/CN` [Compound 16, (Z)-5-((1-(4-amino-2-fluorobut-2-en-1-yl)-2,5-dimethyl-1H-pyrrolo[3,2-b]pyridin-3-yl)methyl)-N,N-dimethylpyridine-2-sulfonamide trihydrochloride], the negative logarithm of the IC50 (pIC50) in assay [1] is below 6.52; in assay [2], above 6.52; in assay [3], below 5.52; in assay [4] it was below 5.52.

In the case of `Cc1ccc2c(n1)c(Cc1cccc(S(C)(=O)=O)c1)c(C)n2C/C(F)=C/CN` [Compound 17, (Z)-4-(2,5-dimethyl-3-(3-(methylsulfonyl)benzyl)-1H-pyrrolo[3,2-b]pyridin-1-yl)-3-fluorobut-2-en-1-amine dihydrochloride], the pIC50 is below 6.52 in assay [1], above 6.52 in assay [2], below 5.52 in assay [3] and below 5.52 in assay [4].

Turning to `Cc1c(Cc2cccc(S(=O)(=O)N(C)C)c2)c2ncccc2n1C/C(F)=C/CN` [Compound 18, dihydrochloride], the pIC50 in assay [1] is below 6.52; in assay [2], above 6.52; in assay [3], below 5.52; in assay [4] it was below 5.52.

For the compound `Cc1cc2c(nc1O)c(Cc1ccc(S(=O)(=O)N(C)C)cc1)c(C)n2C/C(F)=C/CN` [Compound 19, (Z)-4-((1-(4-amino-2-fluorobut-2-en-1-yl)-5-hydroxy-2,6-dimethyl-1H-pyrrolo[3,2-b]pyridin-3-yl)methyl)-N,N-dimethylbenzenesulfonamide dihydrochloride], the pIC50 in assay [1] is below 6.52; in assay [2] it was above 6.52; in assay [3], below 5.52; in assay [4], below 5.52.

Turning to `Cc1c(Cc2ccc(S(C)(=O)=O)cc2Cl)c2ncccc2n1C/C(F)=C/CN` [Compound 20, (Z)-4-(3-(2-chloro-4-(methylsulfonyl)benzyl)-2-methyl-1H-pyrrolo[3,2-b]pyridin-1-yl)-3-fluorobut-2-en-1-amine dihydrochloride], the negative-log IC50 (pIC50) in assay [1] was below 6.52; in assay [2], above 6.52; in assay [3] it was below 5.52; in assay [4], below 5.52.

Turning to `Cc1c(Oc2ccc(S(=O)(=O)N(C)C)cc2)c2ccccc2n1C/C(F)=C/CN` [Compound 21, (Z)-4-((1-(4-amino-2-fluorobut-2-en-1-yl)-2-methyl-1H-indol-3-yl)oxy)-N,N-dimethylbenzene-sulfonamide hydrochloride], the pIC50 in assay [1] was below 6.52; in assay [2], above 6.52; in assay [3], below 5.52; in assay [4], below 5.52.

Take `Cc1c(Cc2ccc(S(=O)(=O)N(C)C)cc2)c2nc(F)ccc2n1C/C(F)=C/CN` [Compound 23, (Z)-4-((1-(4-amino-2-fluorobut-2-en-1-yl)-5-fluoro-2-methyl-1H-pyrrolo[3,2-b]pyridin-3-yl)methyl)-N,N-dimethylbenzenesulfonamide dihydrochloride]: the pIC50 was below 6.52 in assay [1], above 6.52 in assay [2], below 5.52 in assay [3] and below 5.52 in assay [4].

For orientation: pIC50 means −log10 of the IC50, conventionally taken in molar units.
